According to US20040072848A1, “Methods of treating irritable bowel syndrome and functional dyspepsia” (priority 2003, published 2004):

Tested on: Zymosan-sensitized rats
Test: Rodent model of zymosan-induced hyperalgesia: visceromotor response to colorectal distention
Type: in vivo, Sprague-Dawley rats
Conditions: two doses (time 0 and 16 h), intracolonic zymosan, CRD 80 mm Hg, 20 s, 4 h after zymosan, expressed as percentage of control, baseline = 100%
Experimental: FIG. 1 is a graphical representation of the results of a study conducted in Zymosan-sensitized rats comparing the effect of (E)-4-(1,3-bis(cyclohexylmethyl)-1,2,3,6-tetrahydro-2,6-dioxo-9H-purin-8-yl)cinnamic acid nonaethylene glycol methyl ether ester ([…] and 25 mg/kg) versus vehicle. Results are reported as response to colorectal distention (CRD) (as a percent of control) with increasing dosage of 0, 12.5, and 25 mg/kg of compound (sensitized --▪--) as compared to baseline (--♦--).
Protocol for Evaluation of (E)-4-(1,3-bis(cyclohexylmethyl)-1,2,3,6-tetrahydro-2,6-dioxo-9H-purin-8-yl)cinnamic acid nonaethylene glycol methyl ether ester in a Rodent Model of Zymosan-Induced Hyperalgesia […]
The descending colon and rectum were distended by pressure-controlled inflation of a 7-8-cm-long flexible latex balloon tied around a flexible tube. […] Intracolonic pressure was continuously monitored by the aid of a pressure control device. Response was, quantified as the visceromotor response (VMR), a contraction of the abdominal and hindlimb musculature. EMG activity produced by contraction of the external oblique musculature was quantified using Spike2 software (Cambridge Electronic Designs). Each distension trial lasted 60 seconds, and EMG activity was quantitated in 1-second bins for 20 seconds before distension (baseline), during distention, and 20 seconds after distention. […]

With `COCCOCCOCCOCCOCCOCCOCCOCCOCCOC(=O)/C=C/c1ccc(-c2nc3c(=O)n(CC4CCCCC4)c(=O)n(CC4CCCCC4)c3[nH]2)cc1` [(E)-4-(1,3-bis(cyclohexylmethyl)-1,2,3,6-tetrahydro-2,6-dioxo-9H-purin-8-yl)cinnamic acid nonaethylene glycol methyl ether ester] the “response to colorectal distention (CRD), visceromotor response” value (12.5 mg/kg oral gavage) was “decreased the response to colorectal distention down to baseline levels” and the “response to colorectal distention (CRD), visceromotor response” value (25 mg/kg oral gavage) was “decreased the response to colorectal distention down to baseline levels”.
